Laboratory results: patent US20080249001A1, “AGENTS THAT ALLEVIATE SIDE-EFFECTS CAUSED BY CHEMOTHERAPY AGENTS” (priority 2006, published 2008)
Where a name gives a salt, the structure may show the parent alone. Bridges are numbered along the chain shown (N, C = ends). Where no end group is shown, it is not given here.

Columns and labels:
[1] = test system: mouse bone-marrow cells (CFU-E colonies); experiment: in vitro CFU-E colony assay in methylcellulose semisolid medium under the existence of EPO; type: cell-based; settings: for CFU-E inhibiting action (inhibition of expression of CFU-E colonies) / CFU-E inhibiting action (expression of CFU-E colonies): 48 hours
Experimental: (§1) More specifically, the in vitro colony assay method wherein a methylcellulose semisolid medium is used is generally used as the method for determining CFU-E. It is the most suitable experimental system for finding the action of improving the decrease of CFU-E caused by chemotherapy agents. […] In the oral administration to rats, the single administration of 1.2 g/kg of arginine makes the blood concentration thereof reach around 600 μM. Therefore, the increase of CFU-E dependent on the administered dose is expected in the oral administration. In human beings, too, it is expected that the number of CFU-E increases depending on the blood concentration of arginine by the oral administration.
The in vitro CFU-E colony assay was conducted as follows. After making a male BDF-1 mouse of 11 weeks old (by Charles River Laboratories Japan, Inc.) die by the cervical dislocation method, the bone-marrow cells were isolated from the thighbone and suspended in the IMDM medium (by Invitrogen Corporation) which contained 10% FCS (by JRH Biosciences). The bone-marrow cells were centrifuged at 1500 rpm for 10 minutes at 4° C. Then, the precipitated bone-marrow cells were substituted on the IMDM medium without an amino acid, and the number of the cells was determined. 1 mL of a methylcellulose semisolid medium wherein the bone-marrow cells were suspended in the IMDM medium of ⅓ concentration (0.03, 0.1, 0.3 and 1.0 U/mL of rHuEPO by Chugai Pharmaceutical Co., Ltd.; 100 μM of 2-mercaptoethanol by Wako Pure Chemical Industries, Ltd.; 15% FCS by JRH Biosciences; 0.8% methylcellulose, IMDM solution M3134 containing methylcellulose by StemCell Technologies Inc.; 1% BSA by Sigma-Aldrich Japan K.K.; and bone-marrow cells 2.5×10^5/mL) was added to a dish of 3.5 cm in diameter (Nalge Nunc International K.K.). After the medium was cultured at 37° C. under 5% CO2 for 48 hours, the number of CFU-E colonies was determined by using an inverted microscope. […] Data is indicated as the average value.
The in vitro CFU-E colony assay was conducted in the EPO concentration of the maximal action amount thereof. […] Then, the number of CFU-E colonies was determined by using an inverted microscope. […] Data is indicated as the average value.
The CFU-E colony assay was conducted by the same method as that of Example 1. […] Data is indicated as the average value. The vertical axis is the relative value (%) when regarding the number of CFU-E colonies in the control case as 100%.
The in vitro CFU-E colony assay was conducted in the EPO concentration of the maximal action amount thereof. The bone-marrow cells were prepared by the same method as that of Example 1, using a male BDF-1 mouse of 12 weeks old (by Charles River Laboratories Japan, Inc.). Irinotecan hydrochloride was further added to a methylcellulose semisolid medium wherein the bone-marrow cells were suspended in the IMDM medium of ⅓ concentration (1.0 U/mL of rHuEPO by Chugai Pharmaceutical Co., Ltd.; 100 μM of 2-mercaptoethanol by Wako Pure Chemical Industries, Ltd.; 30% FCS by JRH Biosciences; 0.8% methylcellulose, IMDM solution M3134 containing methylcellulose by StemCell Technologies Inc.; 1% BSA by Sigma-Aldrich Japan K.K.; and bone-marrow cells 2.5×10^5/mL), so that the final concentration of irinotecan hydrochloride became 1 μM and 10 μM. After the medium was cultured at 37° C. under 5% CO2 for 48 hours, the number of CFU-E colonies was determined by using an inverted microscope. […] Data is indicated as the average value.
The CFU-E colony assay was conducted by the same method as that of above (1), using a male BDF-1 mouse of 11 weeks old (by Charles River Laboratories Japan, Inc.). The medium to which only 3 μM of irinotecan hydrochloride in its final concentration was added and the medium to which irinotecan hydrochloride in the same concentration as above and 600 uM of arginine were simultaneously further added were prepared and the number of CFU-E colonies was determined. […]

[2] = test system: mouse bone-marrow cells (CFU-E colonies); experiment: in vitro CFU-E colony assay under the existence of EPO mimic peptide EMP1; type: cell-based
Experimental: The bone-marrow cells were prepared by the same method as that of Example 1, using a male BDF-1 mouse of 10 weeks old (by Charles River Laboratories Japan, Inc.). 1 mL of a methylcellulose semisolid medium wherein the bone-marrow cells were suspended in the IMDM medium of ⅓ concentration (1, 3, 10 and 30 μM of EMP1; 100 μM of 2-mercaptoethanol by Wako Pure Chemical Industries, Ltd.; 24% FCS by JRH Biosciences; 0.8% methylcellulose, IMDM solution M3134 containing methylcellulose by StemCell Technologies Inc.; 2% BSA by Sigma-Aldrich Japan K.K.; and bone-marrow cells 2×10^5/mL) was added to a dish of 3.5 cm in diameter (Nalge Nunc International K.K.). After the medium was cultured at 37° C. under 5% CO2 for 48 hours, the number of CFU-E colonies was determined by using an inverted microscope. […] Data is indicated as the average value.
The in vitro CFU-E colony assay was conducted in the EMP1 concentration of the maximal action amount thereof. The bone-marrow cells were prepared by the same method as that of Example 1, using a male BDF-1 mouse of 10 weeks old (by Charles River Laboratories Japan, Inc.). […] After each medium was cultured at 37° C. under 5% CO2 for 48 hours, the number of CFU-E colonies was determined by using an inverted microscope. […] Data is indicated as the average value. The vertical axis is the relative value (%) when regarding the number of CFU-E colonies in the control case as 100%.

[3] = blood concentration of arginine after oral administration to rats; type: in vivo; settings: single administration of 1.2 g/kg
Experimental: as §1

COc1cc([C@@H]2c3cc4c(cc3[C@@H](O[C@@H]3O[C@@H]5CO[C@@H](C)O[C@H]5[C@H](O)[C@H]3O)[C@H]3COC(=O)[C@H]23)OCO4)cc(OC)c1O [VP-16, etoposide]
CFU-E inhibiting action (inhibition of expression of CFU-E colonies) ([1]; 1 nM VP-16, 1 U/mL EPO, FIG. 2): 10%
CFU-E inhibiting action (inhibition of expression of CFU-E colonies) ([1]; 10 nM VP-16, 1 U/mL EPO, FIG. 2): 30%
CFU-E inhibiting action (expression of CFU-E colonies) ([1]; 100 nM VP-16, 1 U/mL EPO, FIG. 2): nearly completely inhibited
decrease of number of CFU-E colonies due to single addition ([2]; 10 nM VP-16 alone, 30 μM EMP1, relative to control 100%, FIG. 7): about 30%

N=C(N)NCCC[C@H](N)C(=O)O [arginine]
blood concentration [3]: around 600 μM
number of CFU-E colonies improved on simultaneous addition of arginine ([1]; 600 uM arginine + 10 nM VP-16, 1 U/mL EPO, relative value to control 100%, FIG. 3): ~90%
increase of number of CFU-E colonies as compared with single addition of irinotecan hydrochloride ([1]; 600 uM arginine + 3 μM irinotecan hydrochloride, 1 U/mL EPO, FIG. 5): ~30%
number of CFU-E colonies improved on simultaneous addition of arginine ([2]; 600 μM arginine + 10 nM VP-16, 30 μM EMP1, relative value to control 100%, FIG. 7): ~90%

CCc1c2c(nc3ccc(OC(=O)N4CCC(N5CCCCC5)CC4)cc13)-c1cc3c(c(=O)n1C2)COC(=O)[C@]3(O)CC [irinotecan hydrochloride]
CFU-E inhibiting action (inhibition of expression of CFU-E colonies) ([1]; 1 μM irinotecan hydrochloride, 1 U/mL EPO, FIG. 4): 30%
CFU-E inhibiting action (expression of CFU-E colonies) ([1]; 10 μM irinotecan hydrochloride, 1 U/mL EPO, FIG. 4): nearly completely inhibited

GGTYSCHFGPLTWVCKPQGG-NH2, C6-C15 disulfide bonding (disulfide 6-15; N-terminus assumed; SMILES CC(C)C[C@@H]1NC(=O)[C@@H]2CCCN2C(=O)CNC(=O)[C@H](Cc2ccccc2)NC(=O)[C@H](Cc2c[nH]cn2)NC(=O)[C@@H](NC(=O)[C@H](CO)NC(=O)[C@H](Cc2ccc(O)cc2)NC(=O)[C@@H](NC(=O)CNC(=O)CN)[C@@H](C)O)CSSC[C@@H](C(=O)N[C@@H](CCCCN)C(=O)N2CCC[C@H]2C(=O)N[C@@H](CCC(N)=O)C(=O)NCC(=O)NCC(N)=O)NC(=O)[C@H](C(C)C)NC(=O)[C@H](Cc2c[nH]c3ccccc23)NC(=O)[C@H]([C@@H](C)O)NC1=O) [EMP1]
maximal action amount (CFU-E colony formation) ([2]; EMP1 1, 3, 10 and 30 μM, 48 hours culture, FIG. 6): ≥ 10 µM
